Measured values from ChEMBL document CHEMBL3046689, “Volatile aldehydes are promising broad-spectrum postharvest insecticides” (J Agric Food Chem, 2000).
In brackets after ≈: the same amount, converted by molar mass. Activity calls are given as the source filed them. No cut-off for these calls is given here.

Columns and labels:
Myzus persicae [1] = test: Insecticidal activity against Myzus persicae (green peach aphid) applied through two-tier reduced pressure fumigation at 30 mmHg for 0.5 hr and then 760 mmHg for 1.5 hr at 15 degC; assay type: functional; details: read-out: LD50 (the source's name)
Myzus persicae [2] = test: Potentiation factor, ratio of LD50 for Myzus persicae (green peach aphid) applied through atmospheric pressure fumigation at 760 mmHg for 2 hr at 23 +/- 1 degC to LD50 for Myzus persicae (green peach aphid) applied through two-tier reduced pressure fumigation at 30 mmHg for 0.5 hr and then 760 mmHg for 1.5 hr at 23 +/- 1 degC; assay type: functional
Myzus persicae [3] = test: Insecticidal activity against Myzus persicae (green peach aphid) applied through two-tier reduced pressure fumigation at 30 mmHg for 0.5 hr and then 760 mmHg for 1.5 hr at 23 +/- 1 degC; assay type: functional
Myzus persicae [4] = test: Insecticidal activity against Myzus persicae (green peach aphid) applied through atmospheric pressure fumigation at 760 mmHg for 2 hr at 23 +/- 1 degC; assay type: functional; details: read-out: LD50 (the source's name)
Lactuca sativa [5] = test: Phytotoxicity in naked Lactuca sativa (lettuce) assessed as change in visual quality after compound application through two-tier reduced pressure fumigation at 30 mmHg for 0.5 hr and then 760 mmHg for 1.5 hr at 23 +/- 1 degC after 2 hr; assay type: organism-based; details: in vivo
Myzus persicae [6] = test: Insecticidal activity against Myzus persicae (green peach aphid) placed under third leaf of naked Iceburg lettuce heads and after compound application for 2 hr through two-tier reduced pressure fumigation at 30 mmHg for 0.5 hr and then 760 mmHg for 1.5 hr at 23 +/- 1 degC measured after 24 hr; assay type: functional
Tetranychus urticae = test: Insecticidal activity against Tetranychus urticae (two-spotted spider mite); assay type: functional, organism-based
Brevicoryne brassicae = test: Insecticidal activity against Brevicoryne brassicae (cabbage aphids); assay type: functional, organism-based
[7] = system: Frankliniella occidentalis; test: Insecticidal activity against Frankliniella occidentalis (western flower thrips); assay type: functional, organism-based
Bemisia = test: Insecticidal activity against Bemisia sp.; assay type: functional, organism-based
Pseudococcus affinis = test: Insecticidal activity against Pseudococcus affinis; assay type: functional, organism-based
Pseudococcus viburni = test: Insecticidal activity against Pseudococcus viburni; assay type: functional, organism-based
Lactuca sativa [8] = test: Phytotoxicity in naked Lactuca sativa (lettuce) assessed as residual aldehyde odor after compound application through two-tier reduced pressure fumigation at 30 mmHg for 0.5 hr and then 760 mmHg for 1.5 hr at 23 +/- 1 degC after 2 hr; assay type: organism-based; details: in vivo
[9] = Myzus persicae, read-out: LD50 (the source's name)

`CCCC=O` [BUTANAL] showed an LC50 (Myzus persicae [1]) of 31 mg/L (≈ 430 µM), a Ratio (Myzus persicae [2]) of 2.4 and a CTP (Myzus persicae [3]) of 21.6 mg/L.hr. For the same compound, the LC50 (Myzus persicae [3]; [9]) was 10.8 mg/L (≈ 150 µM), the LC50 (Myzus persicae [4]) was 26.1 mg/L (≈ 362 µM) and the Activity (Lactuca sativa [5]) was “Toxic”. The LD90 (Myzus persicae [6]) was 177.5 mg/L, the LC50 (Myzus persicae [6]; [9]) was 130 mg/L (≈ 1800 µM) and the Activity (Tetranychus urticae) was “inactive”. For the same compound, the Activity (Brevicoryne brassicae) was “inactive”, the Activity [7] was “Active” and the Activity (Bemisia) was “Active”. The Activity (Pseudococcus affinis) was “Active”, the Activity (Pseudococcus viburni) was “Active” and the Activity (Lactuca sativa [8]) was “Toxic”.
